Measured values as given in US12077503B2, “Substituted cyclic amides and their use as herbicides” (FMC CORPORATION, priority 2015, dated 2024).

Legend:
Test in all cases: Test C preemergence
Assay type in all cases: in vivo
corn (Zea mays) = details: for Plant response rating, Corn: scale 0 to 100, 0 no effect, 100 complete control
Outline: (§1)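 Preemergence application to seeds in loam/sand soil, or foliar (postemergence) application to plants 2–18 cm tall in peat moss/vermiculite medium; surfactant-containing non-phytotoxic solvent vehicle; greenhouse. Visual injury vs controls at 13–15 d; 0 = no effect, 100 = complete control.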

[1] = tested on: blackgrass (Alopecurus myosuroides); details: for Plant response rating, Blackgrass: scale 0 to 100, 0 no effect, 100 complete control
Outline: as §1

[2] = tested on: oilseed rape (Brassica napus); details: for Plant response rating, Oilseed Rape: scale 0 to 100, 0 no effect, 100 complete control
Outline: as §1

[3] = tested on: barnyardgrass (Echinochloa crus-galli); details: for Plant response rating, Barnyardgrass: scale 0 to 100, 0 no effect, 100 complete control
Outline: as §1

[4] = tested on: pigweed (Amaranthus retroflexus); details: for Plant response rating, Pigweed: scale 0 to 100, 0 no effect, 100 complete control
Outline: as §1

[5] = tested on: ragweed (common ragweed, Ambrosia elatior); details: for Plant response rating, Ragweed: scale 0 to 100, 0 no effect, 100 complete control
Outline: as §1

[6] = tested on: velvetleaf (Abutilon theophrasti); details: for Plant response rating, Velvetleaf: scale 0 to 100, 0 no effect, 100 complete control
Outline: as §1

[7] = tested on: Galium (catchweed bedstraw, Galium aparine); details: for Plant response rating, Galium: scale 0 to 100, 0 no effect, 100 complete control
Outline: as §1

[8] = tested on: nutsedge, yellow (yellow nutsedge, Cyperus esculentus); details: for Plant response rating, Nutsedge, Yellow: scale 0 to 100, 0 no effect, 100 complete control
Outline: as §1

[9] = tested on: wheat (winter wheat, Triticum aestivum); details: for Plant response rating, Wheat: scale 0 to 100, 0 no effect, 100 complete control
Outline: as §1

[10] = tested on: morningglory (Ipomoea coccinea); details: for Plant response rating, Morningglory: scale 0 to 100, 0 no effect, 100 complete control
Outline: as §1

soybean (Glycine max) = details: for Plant response rating, Soybean: scale 0 to 100, 0 no effect, 100 complete control
Outline: as §1

[11] = tested on: ryegrass, Italian (Italian ryegrass, Lolium multiflorum); details: for Plant response rating, Ryegrass, Italian: scale 0 to 100, 0 no effect, 100 complete control
Outline: as §1

[12] = tested on: lambsquarters (Chenopodium album); details: for Plant response rating, Lambsquarters: scale 0 to 100, 0 no effect, 100 complete control
Outline: as §1

[13] = tested on: foxtail, giant (giant foxtail, Setaria faberii); details: for Plant response rating, Foxtail, Giant: scale 0 to 100, 0 no effect, 100 complete control
Outline: as §1

[14] = tested on: waterhemp (common waterhemp, Amaranthus rudis); details: for Plant response rating, Waterhemp: scale 0 to 100, 0 no effect, 100 complete control
Outline: as §1

[15] = tested on: crabgrass, large (large crabgrass, Digitaria sanguinalis); details: for Plant response rating, Crabgrass, Large: scale 0 to 100, 0 no effect, 100 complete control
Outline: as §1

[16] = 31 g ai/ha, 0 is no effect, 100 is complete control

SMILES: CN1CC(c2ccc(C(F)(F)F)cc2)C(C(=O)Nc2ccccc2S(C)(=O)=O)C1=O (centres unmarked) [Compound 624]
- Plant response rating (scale of 0 to 100), Corn (corn (Zea mays); [16]): 0
- Plant response rating, Corn (corn (Zea mays); 62 g ai/ha): 0
- Plant response rating, Corn (corn (Zea mays); 125 g ai/ha): 5
- Plant response rating, Corn (corn (Zea mays); 250 g ai/ha): 65
- Plant response rating (scale of 0 to 100), Blackgrass [1, 16]: 50
- Plant response rating, Blackgrass ([1]; 62 g ai/ha): 70
- Plant response rating, Blackgrass ([1]; 125 g ai/ha): 90
- Plant response rating, Blackgrass ([1]; 250 g ai/ha): 90
- Plant response rating (scale of 0 to 100), Oilseed Rape [2, 16]: 75
- Plant response rating, Oilseed Rape ([2]; 62 g ai/ha): 80
- Plant response rating, Oilseed Rape ([2]; 125 g ai/ha): 85
- Plant response rating, Oilseed Rape ([2]; 250 g ai/ha): 85
- Plant response rating (scale of 0 to 100), Barnyardgrass [3, 16]: 75
- Plant response rating, Barnyardgrass ([3]; 62 g ai/ha): 90
- Plant response rating, Barnyardgrass ([3]; 125 g ai/ha): 95
- Plant response rating, Barnyardgrass ([3]; 250 g ai/ha): 95
- Plant response rating (scale of 0 to 100), Pigweed [4, 16]: 80
- Plant response rating, Pigweed ([4]; 62 g ai/ha): 85
- Plant response rating, Pigweed ([4]; 125 g ai/ha): 85
- Plant response rating, Pigweed ([4]; 250 g ai/ha): 90
- Plant response rating (scale of 0 to 100), Ragweed [5, 16]: 25
- Plant response rating, Ragweed ([5]; 62 g ai/ha): 55
- Plant response rating, Ragweed ([5]; 125 g ai/ha): 75
- Plant response rating, Ragweed ([5]; 250 g ai/ha): 80
- Plant response rating (scale of 0 to 100), Velvetleaf [6, 16]: 10
- Plant response rating, Velvetleaf ([6]; 62 g ai/ha): 30
- Plant response rating, Velvetleaf ([6]; 125 g ai/ha): 45
- Plant response rating, Velvetleaf ([6]; 250 g ai/ha): 65
- Plant response rating (scale of 0 to 100), Galium [7, 16]: 50
- Plant response rating, Galium ([7]; 62 g ai/ha): 85
- Plant response rating, Galium ([7]; 125 g ai/ha): 80
- Plant response rating, Galium ([7]; 250 g ai/ha): 85
- Plant response rating (scale of 0 to 100), Nutsedge, Yellow [8, 16]: 0
- Plant response rating, Nutsedge, Yellow ([8]; 62 g ai/ha): 0
- Plant response rating, Nutsedge, Yellow ([8]; 125 g ai/ha): 25
- Plant response rating, Nutsedge, Yellow ([8]; 250 g ai/ha): 50
- Plant response rating (scale of 0 to 100), Wheat [9, 16]: 0
- Plant response rating, Wheat ([9]; 62 g ai/ha): 35
- Plant response rating, Wheat ([9]; 125 g ai/ha): 45
- Plant response rating, Wheat ([9]; 250 g ai/ha): 80
- Plant response rating (scale of 0 to 100), Morningglory [10, 16]: 0
- Plant response rating, Morningglory ([10]; 62 g ai/ha): 0
- Plant response rating, Morningglory ([10]; 125 g ai/ha): 30
- Plant response rating, Morningglory ([10]; 250 g ai/ha): 35
- Plant response rating (scale of 0 to 100), Soybean (soybean (Glycine max); [16]): 0
- Plant response rating, Soybean (soybean (Glycine max); 62 g ai/ha): 0
- Plant response rating, Soybean (soybean (Glycine max); 125 g ai/ha): 15
- Plant response rating, Soybean (soybean (Glycine max); 250 g ai/ha): 40
- Plant response rating (scale of 0 to 100), Ryegrass, Italian [11, 16]: 10
- Plant response rating, Ryegrass, Italian ([11]; 62 g ai/ha): 40
- Plant response rating, Ryegrass, Italian ([11]; 125 g ai/ha): 30
- Plant response rating, Ryegrass, Italian ([11]; 250 g ai/ha): 30
- Plant response rating (scale of 0 to 100), Lambsquarters [12, 16]: 35
- Plant response rating, Lambsquarters ([12]; 62 g ai/ha): 40
- Plant response rating, Lambsquarters ([12]; 125 g ai/ha): 70
- Plant response rating, Lambsquarters ([12]; 250 g ai/ha): 60
- Plant response rating (scale of 0 to 100), Foxtail, Giant [13, 16]: 85
- Plant response rating, Foxtail, Giant ([13]; 62 g ai/ha): 90
- Plant response rating, Foxtail, Giant ([13]; 125 g ai/ha): 90
- Plant response rating, Foxtail, Giant ([13]; 250 g ai/ha): 95
- Plant response rating (scale of 0 to 100), Waterhemp [14, 16]: 85
- Plant response rating, Waterhemp ([14]; 62 g ai/ha): 90
- Plant response rating, Waterhemp ([14]; 125 g ai/ha): 90
- Plant response rating, Waterhemp ([14]; 250 g ai/ha): 100
- Plant response rating (scale of 0 to 100), Crabgrass, Large [15, 16]: 95
- Plant response rating, Crabgrass, Large ([15]; 62 g ai/ha): 100
- Plant response rating, Crabgrass, Large ([15]; 125 g ai/ha): 100
- Plant response rating, Crabgrass, Large ([15]; 250 g ai/ha): 98
